Our source for the IC50 and Activity values is ChEMBL document CHEMBL4725337, “Modification of imidazothiazole derivatives gives promising activity in B-Raf kinase enzyme inhibition; synthesis, in vitro studies and molecular docking” (Bioorg Med Chem Lett, 2020).

The IC50 is the point on the concentration scale where inhibition reaches its midpoint. A low value points to greater potency.

The target of the first assay is Serine/threonine-protein kinase B-raf (Homo sapiens, UniProt P15056, V600E). Briefly: Inhibition of BRAF V600E mutant (unknown origin).
Sequence of Serine/threonine-protein kinase B-raf (P15056 2-766 V600E limits assumed): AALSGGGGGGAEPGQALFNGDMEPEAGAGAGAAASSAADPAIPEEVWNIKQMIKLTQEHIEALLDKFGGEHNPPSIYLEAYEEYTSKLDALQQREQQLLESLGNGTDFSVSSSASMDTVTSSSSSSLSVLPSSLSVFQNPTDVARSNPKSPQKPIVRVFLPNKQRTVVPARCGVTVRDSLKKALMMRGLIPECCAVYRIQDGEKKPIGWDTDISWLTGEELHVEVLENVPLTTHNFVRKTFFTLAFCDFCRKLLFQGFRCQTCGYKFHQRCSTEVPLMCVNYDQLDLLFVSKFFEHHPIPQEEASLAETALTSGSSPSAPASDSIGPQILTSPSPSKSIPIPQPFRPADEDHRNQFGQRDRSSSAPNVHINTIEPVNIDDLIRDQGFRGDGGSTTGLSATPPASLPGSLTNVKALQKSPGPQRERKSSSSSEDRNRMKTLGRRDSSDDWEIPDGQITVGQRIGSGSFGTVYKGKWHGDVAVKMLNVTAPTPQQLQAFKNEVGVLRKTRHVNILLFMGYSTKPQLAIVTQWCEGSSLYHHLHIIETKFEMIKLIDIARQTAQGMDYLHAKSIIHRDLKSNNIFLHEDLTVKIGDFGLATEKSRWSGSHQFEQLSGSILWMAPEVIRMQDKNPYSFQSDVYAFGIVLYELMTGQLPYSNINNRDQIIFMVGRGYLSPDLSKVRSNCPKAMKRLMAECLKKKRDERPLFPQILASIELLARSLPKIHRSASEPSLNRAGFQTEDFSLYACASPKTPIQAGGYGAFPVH
`Nc1cccc(-c2nc3sccn3c2-c2ccnc(NCCNS(=O)(=O)c3ccc(Cl)cc3)n2)c1` came in with an IC50 of 0.0167 µM.

`Nc1cccc(-c2nc3sccn3c2-c2ccnc(NCCCCNS(=O)(=O)c3ccc(Br)cc3)n2)c1` had an IC50 of 0.00431 µM.

Take `Nc1cccc(-c2nc3sccn3c2-c2ccnc(NCCNS(=O)(=O)c3ccc(C(F)(F)F)cc3)n2)c1`: the IC50 was determined as 0.141 µM.

Consider `Nc1cccc(-c2nc3sccn3c2-c2ccnc(NCCNS(=O)(=O)c3ccc(Br)cc3)n2)c1`, for which the IC50 worked out at 0.0737 µM. Against the preceding compound, the IC50 is about 1.9-fold lower.

`COc1ccc(S(=O)(=O)NCCNc2nccc(-c3c(-c4cccc(N)c4)nc4sccn34)n2)cc1` registered an IC50 of 0.0234 µM.

Turning to `Cc1ccc(S(=O)(=O)NCCNc2nccc(-c3c(-c4cccc(N)c4)nc4sccn34)n2)cc1`, the midpoint of inhibition, the IC50, lay at 0.0591 µM. This IC50 lies about 2.5-fold higher than the previous one.

On to `Nc1cccc(-c2nc3sccn3c2-c2ccnc(NCCNS(=O)(=O)c3cccc4ccccc34)n2)c1`, for which half-maximal inhibition (IC50) required 0.152 µM.

`Nc1cccc(-c2nc3sccn3c2-c2ccnc(NCCNS(=O)(=O)c3ccc(F)cc3)n2)c1` came in with an IC50 of 0.0127 µM.

`Nc1cccc(-c2nc3sccn3c2-c2ccnc(NCCNS(=O)(=O)c3cccc(F)c3)n2)c1` gave an IC50 of 0.0283 µM. Compared with the last compound, the IC50 is about 2.2-fold higher.

The test system of a further assay is UACC-62. The experiment in a line: Antiproliferative activity against human UACC-62 cells at 10 uM relative to control. The class given is functional.
In turn, `Nc1cccc(-c2nc3sccn3c2-c2ccnc(NCCCCNS(=O)(=O)c3ccc(Br)cc3)n2)c1` displayed an Activity of 3.91%.
